Article PMC12486440, “Design, synthesis, and in silico studies of new benzofuran–pyrazole hybrids as multi-kinase inhibitors with potential antiproliferative activity” (RSC Advances, 2025)

Legend:
HS 578T = conditions: Homo sapiens
Leukemia subpanel = assay: NCI 60 subpanel summary; assay type: cell-based, human
B-Raf (V600E) = B-Raf (V600E) (Homo sapiens, UniProt P15056, V600E); assay: B-Raf kinase inhibitory assay (Kinase-Glo Max); assay type: biochemical
NSCL cancer subpanel = assay: NCI 60 subpanel summary; assay type: cell-based, human
c-Met = c-Met (Homo sapiens, UniProt P08581); assay: c-Met kinase inhibitory assay (HTRF); assay type: biochemical
c-Met, sequence (P08581 25-1390): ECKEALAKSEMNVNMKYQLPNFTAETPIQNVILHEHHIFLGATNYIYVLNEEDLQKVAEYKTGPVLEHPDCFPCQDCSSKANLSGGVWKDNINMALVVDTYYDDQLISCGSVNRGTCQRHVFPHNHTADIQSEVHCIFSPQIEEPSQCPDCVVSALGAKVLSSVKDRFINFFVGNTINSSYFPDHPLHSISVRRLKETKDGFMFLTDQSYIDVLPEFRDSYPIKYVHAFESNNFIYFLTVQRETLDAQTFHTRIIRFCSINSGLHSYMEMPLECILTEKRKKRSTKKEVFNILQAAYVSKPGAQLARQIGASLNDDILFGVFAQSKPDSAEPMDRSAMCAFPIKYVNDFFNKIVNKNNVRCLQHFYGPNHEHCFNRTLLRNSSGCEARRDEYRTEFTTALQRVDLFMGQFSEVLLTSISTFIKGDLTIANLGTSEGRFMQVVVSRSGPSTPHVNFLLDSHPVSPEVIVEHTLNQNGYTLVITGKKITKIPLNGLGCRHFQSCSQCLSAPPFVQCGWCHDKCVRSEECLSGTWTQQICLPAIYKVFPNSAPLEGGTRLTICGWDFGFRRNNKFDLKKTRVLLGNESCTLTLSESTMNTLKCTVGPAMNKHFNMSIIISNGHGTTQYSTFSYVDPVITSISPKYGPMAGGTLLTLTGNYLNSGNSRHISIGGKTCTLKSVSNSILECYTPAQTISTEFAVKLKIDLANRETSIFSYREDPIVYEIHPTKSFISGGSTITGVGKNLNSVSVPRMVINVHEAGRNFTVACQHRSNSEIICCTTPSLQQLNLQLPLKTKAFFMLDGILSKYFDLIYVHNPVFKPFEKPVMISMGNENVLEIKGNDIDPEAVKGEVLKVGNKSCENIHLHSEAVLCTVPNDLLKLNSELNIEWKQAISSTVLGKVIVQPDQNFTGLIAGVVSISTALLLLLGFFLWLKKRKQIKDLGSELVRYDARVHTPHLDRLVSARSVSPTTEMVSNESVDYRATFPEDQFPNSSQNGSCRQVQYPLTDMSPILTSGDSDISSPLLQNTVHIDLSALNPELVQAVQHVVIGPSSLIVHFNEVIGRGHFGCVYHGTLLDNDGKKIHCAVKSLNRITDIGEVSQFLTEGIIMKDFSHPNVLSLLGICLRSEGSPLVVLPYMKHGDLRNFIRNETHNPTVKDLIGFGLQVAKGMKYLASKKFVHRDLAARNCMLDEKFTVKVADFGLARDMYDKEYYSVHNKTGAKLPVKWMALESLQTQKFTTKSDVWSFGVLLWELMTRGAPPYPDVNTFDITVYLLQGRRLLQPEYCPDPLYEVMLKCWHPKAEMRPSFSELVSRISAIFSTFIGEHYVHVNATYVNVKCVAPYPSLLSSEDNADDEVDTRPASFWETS

[1] = test system: NCI 60 cancer cell line panel; assay: NCI 60 full panel summary
RPMI-8226 = conditions: Homo sapiens, RPMI-8226
MDA-MB-468 = conditions: single dose 10 μM; breast carcinoma
NCI/ADR-RES = conditions: Homo sapiens, NCI/ADR-RES
Renal cancer subpanel = assay: NCI 60 subpanel summary; assay type: cell-based, human
HepG-2 cancer cells = assay: Annexin V-FITC/PI apoptosis detection; assay type: cell-based, human; conditions: 24 h
Experimental: The annexin V-FITC apoptosis detection kit (BD Biosciences) was used to quantify the percentage of cells undergoing apoptosis and detect the modes of cell death, either by apoptosis or necrosis, in the presence or absence of the active compound 3d. The experiment was carried out according to the manufacturer's protocol. More details are presented in the SI.
Flow cytometry assay employing annexin V-FITC and propidium iodide double labeling was used to further examine the apoptotic impact of compound 3d.[81,82] […] Additionally, 3d enhanced the late apoptotic effect from 0.17% in the control cells to 15.07% in the treated cells. Moreover, compound 3d promoted necrosis by 4.32% in the 3d-treated cells in comparison with 1.4% in the untreated ones (Table 5 and Fig. 4). These findings support the cytotoxic action of compound 3d on HepG-2 cells. In addition, it implies that its cytotoxic impact is not only due to it initiating programmed cell death pathways in an orderly manner but also its ability to effectively complete the apoptotic process, which results in the fragmentation and removal of cancer cells. […]
5.2.4. Annexin-V FTIC apoptotic study
Estimation of fractional DNA content (aka sub-G1 assay) is a widely used assay to determine apoptosis. Cleavage of genomic DNA into smaller fragments (180–200 bp lengths) is a hallmark for apoptosis in numerous cells. PI stained cells will stain less intensely and show a peak below the G1 peak (Sub-G1). In this work, flow cytometer with Annexin V-fluorescein isothiocyanate/propidium iodide FITC/PI double staining apoptosis detection kit (K101, Biovision) was used to study apoptosis of MCF-7 cells treated with compound 3d. Cells were incubated, collected by centrifugation, re-suspended in 500 μL of 1X binding buffer. Annexin V-FITC (5 μL) and PI (5 μL) was added and incubation was continued for additional 5 min in the dark at room temperature. Annexin V-FITC binding was analyzed by flow cytometry using FITC signal detector (FL1) and PI staining by FL2 phycoerythrin emission signal detector [75].

[2] = single dose 10 μM, non-small lung carcinoma
[3] = single dose 10 μM, renal carcinoma
[4] = Homo sapiens, subpanel mean graph midpoint, read-out: MG-MID (GI50)
[5] = full panel MG-MID / subpanel MG-MID
[6] = single dose 10 μM, colon cancer

B-Raf (V600E), sequence (P15056 whole entry V600E): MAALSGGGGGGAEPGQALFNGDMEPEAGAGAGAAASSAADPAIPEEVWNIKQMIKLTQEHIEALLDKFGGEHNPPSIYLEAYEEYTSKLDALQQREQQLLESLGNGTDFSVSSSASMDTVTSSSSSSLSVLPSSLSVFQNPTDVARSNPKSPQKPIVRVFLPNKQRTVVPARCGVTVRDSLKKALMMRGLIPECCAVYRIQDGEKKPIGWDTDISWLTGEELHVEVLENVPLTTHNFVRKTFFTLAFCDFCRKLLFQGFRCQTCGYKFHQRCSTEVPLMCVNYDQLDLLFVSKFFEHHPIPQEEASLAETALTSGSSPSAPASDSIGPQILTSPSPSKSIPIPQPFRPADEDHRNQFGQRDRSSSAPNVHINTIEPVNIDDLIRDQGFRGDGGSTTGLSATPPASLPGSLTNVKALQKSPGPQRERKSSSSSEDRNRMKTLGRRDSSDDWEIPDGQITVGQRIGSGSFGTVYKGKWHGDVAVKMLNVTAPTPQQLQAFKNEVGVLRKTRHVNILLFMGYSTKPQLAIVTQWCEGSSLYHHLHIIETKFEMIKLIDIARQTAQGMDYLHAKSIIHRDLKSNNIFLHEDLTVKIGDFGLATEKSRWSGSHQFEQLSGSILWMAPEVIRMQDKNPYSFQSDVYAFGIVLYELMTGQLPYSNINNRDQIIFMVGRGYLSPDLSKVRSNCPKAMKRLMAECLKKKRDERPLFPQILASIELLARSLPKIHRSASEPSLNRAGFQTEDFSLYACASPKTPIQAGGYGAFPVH

## c1ccc(-n2cc(C3CC(c4nc5ccccc5[nH]4)=NN3)c(-c3cc4ccccc4o3)n2)cc1 (stereo not drawn) [3d, 3-(Benzofuran-2-yl)-4-(3-(1H-benzo[d]imidazol-2-yl)-4,5-dihydro-1H-pyrazol-5-yl)-1-phenyl-1H-pyrazole]
HOP-62; Homo sapiens, HOP-62
  GI50: 3.66 µM
HOP-62; [2]
  GI%: 74.46%
RXF 393; Homo sapiens, RXF 393
  GI50: 6.25 µM
RXF 393; [3]
  GI%: 63.52%
HS 578T
  GI50: 7.94 µM
Leukemia subpanel; [4]
  GI50: 3.23 µM
Leukemia subpanel; [5]
  Selectivity index: 1.30
B-Raf (V600E)
  IC50: 175 nM
B-Raf (V600E); ratio of IC50 values
  times less sensitive, B-Raf (V600E), than to vemurafenib: 2.8
HT29; Homo sapiens, HT-29
  GI50: 6.46 µM
HT29; [6]
  GI%: 64.97%
NSCL cancer subpanel; [4]
  GI50: 4.02 µM
NSCL cancer subpanel; [5]
  Selectivity index: 1.04
HCC-2998; Homo sapiens, HCC 2998
  GI50: 5.25 µM
HCC-2998; [6]
  GI%: 70.76%
UACC-257; Homo sapiens, UACC-257
  GI50: 6.24 µM
UACC-257; single dose 10 μM, melanoma
  GI%: 79.15%
c-Met
  IC50: 911 nM
ACHN; Homo sapiens, ACHN
  GI50: 3.11 µM
ACHN; [3]
  GI%: 92.45%
KM12; Homo sapiens, KM12
  GI50: 5.55 µM
KM12; [6]
  GI%: 91.86%
[1]; Homo sapiens, read-out: Full panel MG-MID (GI50), five-dose assay, mean graph midpoint over full panel
  GI50: 4.2 µM
[1]; Homo sapiens, read-out: LC50
  CC50: > 100 µM
[1]; single dose 10 μM, mean over the NCI 60 panel
  Mean GI%: 83.58%
RPMI-8226
  GI50: 3.04 µM
MDA-MB-468
  GI%: 70.95%
NCI/ADR-RES
  GI50: 3.16 µM
Renal cancer subpanel; [4]
  GI50: 4.93 µM
Renal cancer subpanel; [5]
  Selectivity index: 0.85
HepG-2 cancer cells; control 0.17
  Late apoptosis: 15.07%
HepG-2 cancer cells; control 0.52
  Early apoptosis: 24.66%
HepG-2 cancer cells; control 1.4
  Necrosis: 4.32%
HepG-2 cancer cells; control 2.09
  Apoptosis, total: 44.05%
A549/ATCC; Homo sapiens, A549
  GI50: 3.86 µM
A549/ATCC; [2]
  GI%: 87.82%
